Experimental data reported in patent publication US6380243B1, “Aminopyridine-containing thiourea inhibitors of herpes viruses” (American Home Products Corporation, priority 1998, dated 2002).
≈ marks a conversion by molar mass, not a printed value.

Columns and labels:
[1] = test system: HCMV wild-type; assay: HCMV yield assay; assay type: cell-based, human cytomegalovirus; conditions: human foreskin fibroblasts, reduction of virus yield by 50%; for IC50: Human betaherpesvirus 5, Fibroblast, read-out: IC50 (ug/ml) HCMV
Method: Yield assay. Monolayer cultures of human foreskin fibroblasts are infected with HCMV wild-type, typically at a multiplicity of infection equal to 0.2, in the presence of inhibitor compound (varying concentrations). At three days post-infection, total virus produced in these cultures (i.e. virus yield) is assessed by harvesting and titering the virus in 12-well plates of cultured human foreskin fibroblasts (done in the absence of inhibitor). Plaques are quantified at 2 weeks post-infection. An inhibitor of HCMV is identified by the reduction in titer of virus yield in the presence, compared to the titer in the absence of compound. In this assay, the relative anti-HCMV activity of an inhibitor is typically determined by calculating the IC50 or IC90 value, that is, the amount of compound required to reduce the virus yield by 50% or 90%, respectively. Table I describes IC50 data for compounds tested against HCMV.

[2] = test system: HSV-1; assay: HSV Antiviral (ELISA) Assay; assay type: cell-based, herpes simplex virus type 1; conditions: HSV-1, about 24 hours post-infection; for IC50: Human alphaherpesvirus 1, Vero cells, read-out: IC50 (ug/ml) HSV
Method: Vero cells (ATCC #CCL-81) are plated on 96-well tissue culture plates at 3.5×10^4 cells per 100 μl tissue culture DMEM (Dulbecco's modified Eagle media) supplemented with 2% fetal bovine serum (FBS) in each well. After overnight incubation @37° C. (in 5% CO2) and 30 minutes prior to infection with HSV-1 (multiplicity of infection equal to 0.006), cells are either untreated, or treated with test compound (multiple concentrations) or reference standard drug control. After approximately 24 hours post-infection incubation @37° C. (in 5% CO2), cells are fixed for ELISA assay. The primary antibody is murine anti-HSV glycoprotein D monoclonal primary antibody and the secondary antibody is goat anti-mouse IgG linked to β-galactosidase. Thus the extent of viral replication is determined by assessing β-galactosidase activity by quantifying the generation of the 4-methyl umbelliferone fluorescent cleavage product after addition of the methyl umbelliferyl-β-D-galactoside (Sigma #M1633) substrate on a microfluorimeter (365 nm for excitation and 450 nm for emission). Antiviral activity (IC50) of the test compound is determined by comparing the flourescence obtained in absence of compound to that obtained in the presence of compound.

[3] = test system: VZV strain Ellen; assay: VZV Antiviral (ELISA) Assay; assay type: cell-based, varicella-zoster virus; conditions: for IC50 / inhibition at 10 µg/mL: Human alphaherpesvirus 3, 72 h; for IC50: read-out: IC50 (ug/ml) VZV; for inhibition at 10 µg/mL: read-out: % inhibition 10 ug/ml VZV, 10 ug/ml, human foreskin fibroblast cells, three days
Method: For the generation of stock VZV to be used in the assay, VZV strain Ellen (ATCC #VR-1367) is used to infect human foreskin fibroblast (HFF) cells at low multiplicity (less than 0.1) and incubated overnight at 37° C. in 5% CO2. After the overnight incubation, the mixture of uninfected and VZV-infected HFF infected cells are then harvested and added to each well of 96-well plates (3.5×10^4 cells in 100 1μl DMEM supplemented with 2% FBS) which contain test compound or the reference standard drug control (in 100 μl DMEM supplemented with 2% FBS per well). These cells are incubated for three days at 37° C. in 5% CO2, then fixed for ELISA assay. The primary antibody is murine anti-VZV glycoprotein II monoclonal antibody (Applied Biosystems, Inc. #13-145-100) and the secondary antibody is goat anti-mouse IgG linked to β-galactosidase. Thus the extent of viral replication is determined by assessing β-galactosidase activity by quantifying the generation of the 4-methyl umbelliferone fluorescent cleavage product after addition of the methyl umbelliferyl-β-D-galactoside (Sigma #M1633) substrate on a microfluorimeter (365 nm for excitation 450 nm for emission). Antiviral activity (IC50) of the test compound is determined by comparing the flourescence obtained in absence of compound to that obtained the presence of compound.

[4] = human foreskin fibroblast cells, three days

Compound | IC50 [1] | IC50 [2] | IC50 [3, 4] | inhibition at 10 µg/mL [3] | IC50 (ug/ml) HCMV [1] | IC50 (ug/ml) HSV ([2]; Vero cells) | % inhibition 10 ug/ml VZV ([3]; 10 ug/ml, human foreskin fibroblast cells, three days) | IC50 (ug/ml) VZV [3, 4]
CC(NC(=S)Nc1ccc(NC(=O)c2ccccc2F)cc1)c1ccc2ncccc2c1 (stereo not drawn) [Example 1099, 2-Fluoro-N-{4-[3-(1-quinolin-6-yl-ethyl)-thioureido]-phenyl}-benzamide] | 5.6 µg/mL (≈ 12.6 µM) | > 10 µg/mL | > 7.5 µg/mL |  |  |  |  | 
CC(C)(C)n1ccnc1NC(=S)Nc1ccc(NC(=O)c2ccco2)cc1 [Example 609, Furan-2-carboxylic acid {4-[3-(1-tert-butyl-1H-imidazol-2-yl)-thioureido]-phenyl}-amide] | 1.5 µg/mL (≈ 3.91 µM) | 8 µg/mL (≈ 20.9 µM) | > 10 µg/mL |  |  |  |  | 
O=C(Nc1ccc(NC(=S)Nc2cncc(C(F)(F)F)c2)cc1)c1csnn1 [Example 629, [1,2,3]Thiadiazole-4-carboxylic acid {4-[3-(5-trifluoromethyl-pyridin-3-yl)-thioureido]-phenyl}-amide] | 0.5 µg/mL (≈ 1.18 µM) | > 10 µg/mL | > 10 µg/mL |  |  |  |  | 
O=C(Nc1ccc(NC(=S)Nc2cncc(Br)c2)cc1)c1csnn1 [Example 525, [1,2,3]Thiadiazole-4-carboxylic acid {4-[3-(5-bromo-pyridin-3-yl)-thioureido]-phenyl}-amide] | 0.018 µg/mL (≈ 0.0413 µM) | 2.5 µg/mL (≈ 5.74 µM) | > 10 µg/mL | 39% |  |  |  | 
O=C(Nc1ccc(NC(=S)Nc2ccccn2)cc1)c1ccco1 [Example 426, Furan-2-carboxylic acid [4-(3-pyridin-2-yl-thioureido)-phenyl]-amide] | 1.6 µg/mL (≈ 4.73 µM) | > 10 µg/mL | 1.8 µg/mL (≈ 5.32 µM) | 2% |  |  |  | 
CC(NC(=S)Nc1ccc(NC(=O)c2ccccc2F)cc1)c1ccco1 (stereo not drawn) [Example 802, 2-Fluoro-N-{4-[3-(1-furan-2-yl-ethyl)-thioureido]-phenyl}-benzamide] | > 10 µg/mL | > 10 µg/mL | 7.3 µg/mL (≈ 19 µM) |  |  |  |  | 
O=C(Nc1ccc(NC(=S)Nc2ccc3[nH]ncc3c2)cc1)c1ccccc1F [Example 483, 2-Fluoro-N-{4-[3-(1H-indazol-5-yl)-thioureido]-phenyl}-benzamide] | 5 µg/mL (≈ 12.3 µM) | 1.2 µg/mL (≈ 2.96 µM) | > 10 µg/mL | 45% |  |  |  | 
CC(C)(C)n1ccnc1NC(=S)Nc1ccc(NC(=O)c2ccccc2F)cc1 [Example 593, N-{4-[3-(1-tert-Butyl-1H-imidazol-2-yl)-thioureido]-phenyl}-2-fluoro-benzamide] | > 0.5 µg/mL | 10 µg/mL (≈ 24.3 µM) | > 10 µg/mL |  |  |  |  | 
[1,2,3]Thiadiazole-4-carboxylic acid {4-[3-(5-chloro-pyridin-3-yl)-thioureido]-phenyl}-amide [Example 520] |  |  |  |  | 0.32 µg/mL | 12 µg/mL | 38% | >10 µg/mL
CC(NC(=S)Nc1ccc(NC(=O)c2ccccc2F)cc1)c1cc2ccccc2cn1 (stereo not drawn) [Example 1097, 2-Fluoro-N-{4-[3-(1-isoquinolin-3-yl-ethyl)-thioureido]-phenyl}-benzamide] | 4 µg/mL (≈ 9 µM) | > 10 µg/mL | 5.5 µg/mL (≈ 12.4 µM) |  |  |  |  | 
Cc1ccc(S(=O)(=O)n2c(C(C)NC(=S)Nc3ccc(NC(=O)c4ccccc4F)cc3)cc3ccccc32)cc1 (stereo not drawn) [Example 1094, 2-Fluoro-N-[4-(3-{1-[1-(toluene-4-sulfonyl)-1H-indol-2-yl]-ethyl}-thioureido)-phenyl]-benzamide] | > 10 µg/mL | > 10 µg/mL | > 7.5 µg/mL |  |  |  |  | 
O=C(Nc1ccc(NC(=S)NCc2ccncc2)cc1)c1csnn1 [Example 660, [1,2,3]Thiadiazole-4-carboxylic acid [4-(3-pyridin-4-ylmethyl-thioureido)-phenyl]-amide] | > 0.5 µg/mL | 10 µg/mL (≈ 27 µM) |  |  |  |  |  | 
O=C(Nc1ccc(NC(=S)Nc2ccncn2)cc1)c1ccco1 [Example 480, Furan-2-carboxylic acid [4-(3-pyrimidin-4-yl-thioureido)-phenyl]-amide] | 7 µg/mL (≈ 20.6 µM) | > 10 µg/mL | > 10 µg/mL | 42% |  |  |  | 
O=C(Nc1ccc(NC(=S)Nc2ccncc2)cc1)c1ccccc1F [Example 444, 2-Fluoro-N-[4-(3-pyridin-4-yl-thioureido)-phenyl]-benzamide] | 4 µg/mL (≈ 10.9 µM) | 8 µg/mL (≈ 21.8 µM) | > 10 µg/mL | 0% |  |  |  | 
O=C(Nc1ccc(NC(=S)NC2CCc3ccccc32)cc1)c1csnn1 (stereo not drawn) [Example 649, [1,2,3]Thiadiazole-4-carboxylic acid [4-(3-indan-1-yl-thioureido)-phenyl]-amide] | 0.02 µg/mL (≈ 0.0506 µM) | > 10 µg/mL | 0.5 µg/mL (≈ 1.26 µM) |  |  |  |  | 
O=C(Nc1ccc(NC(=S)NCc2cccnc2)cc1)c1ccccc1F [Example 632, 2-Fluoro-N-[4-(3-pyridin-3-ylmethyl-thioureido)-phenyl]-benzamide] | > 10 µg/mL | > 10 µg/mL | > 10 µg/mL |  |  |  |  | 
CC(NC(=S)Nc1ccc(NC(=O)c2ccccc2F)cc1)c1ccc2ccccc2n1 (stereo not drawn) [Example 1095, 2-Fluoro-N-{4-[3-(1-quinolin-2-yl-ethyl)-thioureido]-phenyl}-benzamide] | 2.4 µg/mL (≈ 5.4 µM) | > 10 µg/mL | 7.1 µg/mL (≈ 16 µM) |  |  |  |  | 
O=C(Nc1ccc(NC(=S)NCc2cccnc2)cc1)c1ccco1 [Example 633, Furan-2-carboxylic acid [4-(3-pyridin-3-ylmethyl-thioureido)-phenyl]-amide] | 0.34 µg/mL (≈ 0.965 µM) | > 10 µg/mL | > 10 µg/mL |  |  |  |  | 
O=C(Nc1ccc(NC(=S)Nc2cccnc2)cc1)c1ccccc1F [Example 428, 2-Fluoro-N-[4-(3-pyridin-3-yl-thioureido)-phenyl]-benzamide] | > 10 µg/mL | > 10 µg/mL | > 10 µg/mL | 0% |  |  |  | 
CC(NC(=S)Nc1ccc(NC(=O)c2ccccc2F)cc1)c1ccsc1 (stereo not drawn) [Example 805, 2-Fluoro-N-{4-[3-(1-thiophen-3-yl-ethyl)-thioureido]-phenyl}-benzamide] | 8 µg/mL (≈ 20 µM) | > 10 µg/mL | 1.6 µg/mL (≈ 4 µM) |  |  |  |  | 
O=C(Nc1ccc(NC(=S)Nc2ccncc2)cc1)c1ccco1 [Example 427, Furan-2-carboxylic acid [4-(3-pyridin-4-yl-thioureido)-phenyl]-amide] | 0.8 µg/mL (≈ 2.36 µM) | > 10 µg/mL | 1.2 µg/mL (≈ 3.55 µM) | 21% |  |  |  | 
CC(NC(=S)Nc1ccc(NC(=O)c2ccccc2F)cc1)c1ccncc1 (stereo not drawn) [Example 803, 2-Fluoro-N-{4-[3-(1-pyridin-4-yl-ethyl)-thioureido]-phenyl}-benzamide] | > 10 µg/mL | > 10 µg/mL | > 7.5 µg/mL |  |  |  |  | 
O=C(Nc1ccc(NC(=S)NCc2ccncc2)cc1)c1ccccc1F [Example 658, 2-Fluoro-N-[4-(3-pyridin-4-ylmethyl-thioureido)-phenyl]-benzamide] | > 0.5 µg/mL | 10 µg/mL (≈ 26.3 µM) |  |  |  |  |  | 
COc1ccccc1C(=O)Nc1ccc(NC(=S)NC(C)c2ccsc2)cc1 (stereo not drawn) [Example 1101, 2-Methoxy-N-{4-[3-(1-thiophen-3-yl-ethyl)-thioureido]-phenyl}-benzamide] | > 10 µg/mL | > 10 µg/mL | 1 µg/mL (≈ 2.43 µM) |  |  |  |  | 
O=C(Nc1ccc(NC(=S)Nc2cccnc2)cc1)c1ccco1 [Example 429, Furan-2-carboxylic acid [4-(3-pyridin-3-yl-thioureido)-phenyl]-amide] | 1 µg/mL (≈ 2.96 µM) | > 10 µg/mL | > 10 µg/mL | 0% |  |  |  | 
O=C(Nc1ccc(NC(=S)NCc2ccncc2)cc1)c1ccco1 [Example 659, Furan-2-carboxylic acid [4-(3-pyridin-4-ylmethyl-thioureido)-phenyl]-amide] | > 0.5 µg/mL | > 10 µg/mL |  |  |  |  |  | 
